Results taken from patent publication US4962109A, “Insecticidally and acaricidally active pyrimidine esters and intermediates therefor” (Imperial Chemical Industries PLC, priority 1985, dated 1990).

Experiments:
Format in all cases: in vivo
[1] = tested on: Tetranychus urticae (spider mites - ova); experiment: Contact test on spider mites - ova (TUe), French bean leaf, mortality; details: 144 h, contact, 6 days, read-out: TUe grading of mortality
Summary of the method: (§1)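 Graded read-out: A 80-100%, B 50-79%, C below 50% mortality or knockdown, assessed usually 1-3 days post-treatment. Liquid preparations at 500, 250 or 100 ppm by weight, from acetone solution diluted in water with 0.01% wetting agent, applied to pests and/or their host plant or food medium.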

[2] = tested on: Tetranychus urticae (spider mites - adult); experiment: Contact test on spider mites - adult (TUa), French bean leaf, mortality; details: 72 h, contact, 3 days, read-out: TUa grading of mortality
Summary of the method: as §1

[3] = tested on: Spodoptera exigua (lesser army worm - larvae); experiment: Residual test on lesser army worm larvae (SP), Cotton leaf, mortality; details: 48 h, residual, 2 days, read-out: SP grading of mortality
Summary of the method: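 Product dissolved in acetone and diluted in water with 0.01% wetting agent to 500, 250 or 100 ppm; larvae and/or cotton leaf host treated. Mortality or knockdown scored one to three days later and graded A (80-100%), B (50-79%) or C (<50%).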

[4] = tested on: Musca domestica (houseflies - adults); experiment: Knockdown test on houseflies - adults (MD/KD), Cotton wool/sugar; details: 4 hours, read-out: MD/KD grading of knockdown
Summary of the method: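 Adult houseflies exposed to the compound at 500, 250 or 100 ppm in acetone/water with 0.01% wetting agent, on a cotton wool/sugar medium. Knockdown and mortality assessed, graded A (80-100%), B (50-79%) or C (<50%).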

[5] = tested on: Blattella germanica (cockroach nymphs); experiment: Contact test on cockroach nymphs (BG/C), Plastic pot, mortality; details: 48 h, contact, 2 days, read-out: BG/C grading of mortality
Summary of the method: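 Cockroach nymphs and/or their medium were treated with aqueous preparations at 500, 250 or 100 ppm (acetone solution diluted in water with 0.01% Lissapol NX wetting agent). Mortality or knockdown was assessed typically 1–3 days later and graded A (80–100%), B (50–79%) or C (<50%).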

[6] = tested on: Diabrotica balteata (rootworm larvae); experiment: Residual test on rootworm larvae (DB), Filter paper/maize seed, mortality; details: 48 h, residual, 2 days, read-out: DB grading of mortality
Summary of the method: as §1

[7] = tested on: Musca domestica (houseflies - adults); experiment: Contact test on houseflies - adults (MD), Cotton wool/sugar, mortality; details: 72 h, contact, 3 days, read-out: MD grading of mortality
Summary of the method: as §1

[8] = tested on: Nephotettix cincticeps (green leaf hopper - nymphs); experiment: Contact test on green leaf hopper nymphs (NC), Rice plant, mortality; details: 48 h, contact, 2 days, read-out: NC grading of mortality
Summary of the method: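 Product dissolved in acetone, diluted in water with 0.01% wetting agent to 500, 250 or 100 ppm; nymphs and/or host rice plants treated. Mortality or knockdown assessed 1–3 days later, graded A (80-100%), B (50-79%), C (<50%).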

[9] = tested on: Myzus persicae (aphids); experiment: Contact test on aphids (MP), Chinese Cabbage leaf, mortality; details: 72 h, contact, 3 days, read-out: MP grading of mortality
Summary of the method: as §1

[10] = tested on: Heliothis virescens (tobacco budworm - larvae); experiment: Residual test on tobacco budworm larvae (HV), Cotton leaf, mortality; details: 48 h, read-out: HV grading of mortality
Summary of the method: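 Product in acetone diluted with water containing 0.01% Lissapol NX, at 500, 250 or 100 ppm; pests and/or host medium (here cotton leaf) treated. Mortality scored one to three days later, graded A (80-100%), B (50-79%), C (<50%).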

Row | Compound | mortality at 500 ppm [1] [%] | mortality at 500 ppm [2] [%] | mortality at 500 ppm [3] [%] | pest or weed control at 500 ppm [4] [%] | mortality at 500 ppm [5] [%] | mortality at 500 ppm [6] [%] | mortality at 500 ppm [7] [%] | mortality at 500 ppm [8] [%] | mortality at 500 ppm [9] [%] | mortality at 500 ppm [10] [%] | mortality at 1000 ppm ([1]; 1000 ppm) [%] | mortality at 1000 ppm ([2]; 1000 ppm) [%] | mortality at 1000 ppm ([3]; 1000 ppm) [%] | pest or weed control at 1000 ppm ([4]; 1000 ppm) [%] | mortality at 1000 ppm ([5]; 1000 ppm) [%] | mortality at 1000 ppm ([6]; 1000 ppm) [%] | mortality at 1000 ppm ([7]; 1000 ppm) [%] | mortality at 1000 ppm ([8]; 1000 ppm) [%] | mortality at 1000 ppm ([9]; 1000 ppm) [%] | mortality at 1000 ppm [10] [%]
1 | CC(C)(C)SCc1c(F)c(F)c(COC(=O)C(c2cnc(C(C)(C)C)nc2)C(C)(C)C)c(F)c1F (racemic) [Compound 175, 4-[(1,1-dimethylethyl)thio]methyl-2,3,5,6-tetrafluorobenzyl (RS)-2-[2-(1,1-dimethylethyl)pyrimidin-5-yl]-3,3dimethylbutanoate] | < 50 | 80 to 100 | < 50 | < 50 | < 50 | < 50 | < 50 | < 50 | < 50 | < 50 | – | – | – | – | – | – | – | – | – | –
2 | CC(C)=NOCc1c(F)c(F)c(COC(=O)C(c2cnc(C(C)(C)C)nc2)C(C)(C)C)c(F)c1F (racemic) [Compound 178, 4-(Prop-2-ylideneaminoxymethyl)-2,3,5,6-tetrafluorobenzyl (RS)-2-[2-(1,1-dimethylethyl)pyrimidin-5-yl]-3,3dimethylbutanoate] | < 50 | 80 to 100 | < 50 | < 50 | < 50 | < 50 | < 50 | 80 to 100 | 80 to 100 | < 50 | – | – | – | – | – | – | – | – | – | –
3 | C=C(C)C(C(=O)OCc1c(F)c(F)c(COC)c(F)c1F)c1cnc(C(C)(C)C)nc1 (racemic) [Compound 202, 2,3,5,6-tetrafluoro-4-(methoxymethyl)benzyl (RS)-2-[2-(1,1-dimethylethyl)pyrimidin-5-yl]-3-methylbut-3-enoate] | < 50 | 80 to 100 | 80 to 100 | 80 to 100 | < 50 | < 50 | < 50 | 80 to 100 | 80 to 100 | 50 to 79 | – | – | – | – | – | – | – | – | – | –
4 | CC(C)(C)C(C(=O)OCc1ccc(F)c(Oc2ccccc2)c1)c1cnc(-c2ccccc2Cl)nc1 (racemic) [Compound 209, 4-fluoro-3-phenoxybenzyl (RS)-2-[2-(2-chlorophenyl)pyrimidin-5-yl]-3,3-dimethylbutanoate] | < 50 | 80 to 100 | 50 to 79 | < 50 | < 50 | < 50 | < 50 | < 50 | 50 to 79 | 80 to 100 | – | – | – | – | – | – | – | – | – | –
5 | COCc1c(F)c(F)c(COC(=O)C(c2cnc(N(C)C)nc2)C(C)(C)C)c(F)c1F (racemic) [Compound 199] | 80 to 100 | 80 to 100 | 80 to 100 | 80 to 100 | 80 to 100 | 50 to 79 | 80 to 100 | 80 to 100 | 80 to 100 | 80 to 100 | – | – | – | – | – | – | – | – | – | –
6 | CC(C)(C)c1ncc(C(C(=O)OC(C#N)c2cccc(Oc3ccccc3)c2)C(C)(C)C)cn1 (racemic) [Compound 2, (RS)-1-cyano-1-(3-phenoxphenyl)methyl (RS)-2-[2-(1,1-dimethylethyl)pyrimidin-5-yl]-3,3-dimethylbutanoate] | < 50 | 80 to 100 | 80 to 100 | < 50 | < 50 | 80 to 100 | 80 to 100 | 80 to 100 | 80 to 100 | 80 to 100 | – | – | – | – | – | – | – | – | – | –
7 | CC(OC(=O)C(c1cnc(-c2ccccc2)nc1)C(C)(C)C)c1cccc(Oc2ccccc2)n1 (racemic) [Compound 82, (RS)-1-(6-phenoxpyrid-2-yl)ethyl (RS)-2-(2-phenylpyrimidin-5-yl)-3,3-dimethylbutanoate] | – | – | – | – | – | – | – | – | – | – | < 50 | 80 to 100 | 80 to 100 | 80 to 100 | < 50 | < 50 | < 50 | 80 to 100 | 80 to 100 | 80 to 100
8 | C#CCSCc1c(F)c(F)c(COC(=O)C(c2cnc(C(C)(C)C)nc2)C(C)(C)C)c(F)c1F (racemic) [Compound 220] | < 50 | 80 to 100 | 50 to 79 | 80 to 100 | < 50 | 50 to 79 | 80 to 100 | 80 to 100 | 80 to 100 | < 50 | – | – | – | – | – | – | – | – | – | –
9 | COCc1c(F)c(F)c(COC(=O)C(c2cnc(C(C)(C)C)nc2)C(C)(C)C)c(F)c1OC (racemic) [Compound 217, 2,3,6-trifluoro-5-methoxy-4-(methmethyl)-benzyl (RS)-2-[2-(1,1-dimethylethyl)pyrimidin-5-yl]-3,3-dimethylbutanoate] | < 50 | 80 to 100 | 80 to 100 | 80 to 100 | < 50 | < 50 | 80 to 100 | 80 to 100 | 80 to 100 | 80 to 100 | – | – | – | – | – | – | – | – | – | –
10 | CC(C)(C)c1ncc(C(C(=O)OCc2cccc(Oc3ccccc3)c2)C(C)(C)C)cn1 (racemic) [Compound 1, 3-phenoxybenzyl (RS)-2-[2-(1,1,-dimethylethyl)pyrimidin-5-yl]-3,3-dimethylbutanoate] | 80 to 100 | 80 to 100 | < 50 | 80 to 100 | < 50 | < 50 | < 50 | 80 to 100 | 80 to 100 | 80 to 100 | – | – | – | – | – | – | – | – | – | –
11 | C=CCC(C(=O)OCc1c(F)c(F)c(COC)c(F)c1F)c1cnc(C(C)(C)C)nc1 (racemic) [Compound 212, 4-(methoxymethyl)-2,3,5,6-tetrafluorobenzyl (RS)-2-[2-(1,1-dimethylethyl)pyrimidin-5-yl]pent-4-enoate] | < 50 | 80 to 100 | 50 to 79 | 80 to 100 | < 50 | < 50 | < 50 | 80 to 100 | 80 to 100 | < 50 | – | – | – | – | – | – | – | – | – | –
